US8865688B2, “Compositions and methods for treatment of bowel diseases with granulated mesalamine” (priority 2008, dated 2014)
Where “and” joins values, the source holds several entries; their conditions need not be identical. Identical values can stand only once. Like-named read-outs stand apart in the source and are kept apart here.

What was measured:
mice [1] = assay: Dietary carcinogenicity study; assay type: in vivo; details: 2000 mg/kg/day
Procedure: (§1) These doses are about 2.6 and 5.4 times the recommended human dose of granulated mesalamine capsules of 1.5 g/day (30 mg/kg if 50 kg body weight assumed or 1110 mg/m^2), respectively, based on body surface area. Mesalamine was negative in the Ames test, the mouse lymphoma cell (L5178Y/TK+/−) forward mutation test, the sister chromatid exchange assay in the Chinese hamster bone marrow test, and the mouse bone marrow micronucleus test.

rats [2] = assay: Dietary carcinogenicity study; assay type: in vivo; details: doses as high as 480 mg/kg/day
Procedure: as §1

dogs = assay: 26-week and 52-week oral toxicity studies (renal toxicity); assay type: in vivo; details: oral 60 mg/kg/day (about 1.1 times the human dose) or higher
Source text: (§2) Animal studies with mesalamine (13-week and 26-week oral toxicity studies in rats, and 26-week and 52-week oral toxicity studies in dogs) have shown the kidney to be the major target organ of mesalamine toxicity.

[3] = Effect of high fat meal on absorption of 1.6 g mesalamine granules in sachet, crossover, healthy subjects; assay type: in vivo, human; details: for Effect of high fat meal on plasma Cmax: fed vs fasted, 80%:125% rule
[4] = Detection in human breast milk; details: in vivo
clinical [5] = details: human, in vivo
[6] = In vitro plasma protein binding
rats [7] = assay: Fertility and reproductive performance study; assay type: in vivo; details: oral doses up to 320 mg/kg
CYP2C9 = CYP2C9 (Homo sapiens, UniProt P11712); assay: In vitro drug-drug interaction study, human liver microsomes; assay type: in vitro ADME
CYP2D6 = CYP2D6 (Homo sapiens, UniProt P10635); assay: as above; assay type: in vitro ADME
[8] = tested on: Chinese hamster bone marrow; assay: Sister chromatid exchange assay in the Chinese hamster bone marrow test; details: in vivo
Procedure: as §1

rats [9] = assay: Reproduction studies; details: rat, in vivo
[10] = human, in vivo, 1600 mg
[11] = Single and multiple oral dose pharmacokinetics of 1.5 g granulated mesalamine formulation, crossover, healthy subjects, fasting; details: single dose 1.5 g; harmonic mean (pseudo SD)
CYP2C19 = CYP2C19 (Homo sapiens, UniProt P33261); assay: In vitro drug-drug interaction study, human liver microsomes; assay type: in vitro ADME
CYP1A2 = target: T1, CYP1A2 (Homo sapiens, UniProt P05177); assay: as above; assay type: in vitro ADME
T1 construct: In an in vitro study using human liver microsomes; from tissue; host or cells: human liver microsomes
T1 sequence (P05177 1-516): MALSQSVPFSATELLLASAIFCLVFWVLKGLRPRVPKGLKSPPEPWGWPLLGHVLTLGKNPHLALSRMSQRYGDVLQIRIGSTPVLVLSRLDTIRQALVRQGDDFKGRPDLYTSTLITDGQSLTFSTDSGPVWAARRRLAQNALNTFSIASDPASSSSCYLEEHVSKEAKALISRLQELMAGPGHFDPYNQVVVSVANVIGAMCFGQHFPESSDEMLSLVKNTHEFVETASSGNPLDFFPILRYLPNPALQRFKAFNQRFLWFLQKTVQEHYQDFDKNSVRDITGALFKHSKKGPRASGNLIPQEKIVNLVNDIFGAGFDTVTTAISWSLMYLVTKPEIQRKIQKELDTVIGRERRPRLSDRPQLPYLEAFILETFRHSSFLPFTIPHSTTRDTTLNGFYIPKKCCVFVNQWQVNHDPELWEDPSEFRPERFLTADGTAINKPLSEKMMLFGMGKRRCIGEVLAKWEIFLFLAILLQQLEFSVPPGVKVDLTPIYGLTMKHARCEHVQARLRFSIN

rats [12] = assay: 13-week and 26-week oral toxicity studies (renal toxicity); assay type: in vivo
Source text: as §2

clinical [13] = details: human, in vivo, 1600 mg
CYP3A4 = CYP3A4 (Homo sapiens, UniProt P08684); assay: In vitro drug-drug interaction study, human liver microsomes; assay type: in vitro ADME
[14] = human, in vivo
Ames test = assay type: cell-based
Procedure: as §1

rats [15] = details: rat, in vivo
[16] = tested on: mouse lymphoma cell (L5178Y/TK+/−); assay: Mouse lymphoma cell forward mutation test; assay type: cell-based
Procedure: as §1

mice [17] = details: mouse, in vivo
rabbits = assay: Reproduction studies; details: rabbit, in vivo
[18] = Steady state pharmacokinetics, 3 treatments of 4 days: Asacol 800 mg BID, granulated mesalamine formulation 800 mg BID and 1600 mg QD; assay type: in vivo, human; details: for Tmax: median (range); for AUC: read-out: AUC
Procedure: In a study of 3 treatments in 3 study periods, each separated by a minimum washout of 7 days, treatments were administered orally, and were as follows:
Subjects received treatments A, B, and C, with each administered during one of the three 4-day study treatment periods.
Each treatment regimen lasted for 4 days and was followed by at least a 7 day washout period.

Chain of CYP2C9 (P11712 whole entry): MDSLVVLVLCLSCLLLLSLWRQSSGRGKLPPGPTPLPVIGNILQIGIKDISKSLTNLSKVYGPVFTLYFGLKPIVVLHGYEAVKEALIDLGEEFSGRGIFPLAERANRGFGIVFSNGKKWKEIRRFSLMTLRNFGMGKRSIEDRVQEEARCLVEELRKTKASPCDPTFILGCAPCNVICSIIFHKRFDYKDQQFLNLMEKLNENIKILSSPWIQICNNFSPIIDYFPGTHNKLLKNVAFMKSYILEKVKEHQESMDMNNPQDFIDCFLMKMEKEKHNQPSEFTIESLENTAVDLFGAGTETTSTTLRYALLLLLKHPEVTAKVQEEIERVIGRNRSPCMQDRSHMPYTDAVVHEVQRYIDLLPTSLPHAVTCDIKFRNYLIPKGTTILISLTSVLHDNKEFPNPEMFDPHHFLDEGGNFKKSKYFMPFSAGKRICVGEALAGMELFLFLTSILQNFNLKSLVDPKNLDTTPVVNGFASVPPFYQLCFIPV
Chain of CYP2D6 (P10635 whole entry): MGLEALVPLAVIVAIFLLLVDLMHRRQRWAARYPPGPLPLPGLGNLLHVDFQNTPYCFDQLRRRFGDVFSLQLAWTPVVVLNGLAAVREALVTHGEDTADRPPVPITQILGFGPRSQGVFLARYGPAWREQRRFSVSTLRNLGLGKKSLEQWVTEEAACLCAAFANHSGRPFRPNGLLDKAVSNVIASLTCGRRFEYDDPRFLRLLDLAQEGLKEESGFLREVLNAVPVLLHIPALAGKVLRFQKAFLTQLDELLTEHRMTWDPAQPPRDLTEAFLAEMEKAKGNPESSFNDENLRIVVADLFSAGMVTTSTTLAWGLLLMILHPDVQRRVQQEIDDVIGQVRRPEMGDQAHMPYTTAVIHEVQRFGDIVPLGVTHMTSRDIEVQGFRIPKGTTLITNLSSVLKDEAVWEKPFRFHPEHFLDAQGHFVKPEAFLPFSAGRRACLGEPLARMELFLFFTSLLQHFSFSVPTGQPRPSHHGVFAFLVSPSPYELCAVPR
Chain of CYP3A4 (P08684 whole entry): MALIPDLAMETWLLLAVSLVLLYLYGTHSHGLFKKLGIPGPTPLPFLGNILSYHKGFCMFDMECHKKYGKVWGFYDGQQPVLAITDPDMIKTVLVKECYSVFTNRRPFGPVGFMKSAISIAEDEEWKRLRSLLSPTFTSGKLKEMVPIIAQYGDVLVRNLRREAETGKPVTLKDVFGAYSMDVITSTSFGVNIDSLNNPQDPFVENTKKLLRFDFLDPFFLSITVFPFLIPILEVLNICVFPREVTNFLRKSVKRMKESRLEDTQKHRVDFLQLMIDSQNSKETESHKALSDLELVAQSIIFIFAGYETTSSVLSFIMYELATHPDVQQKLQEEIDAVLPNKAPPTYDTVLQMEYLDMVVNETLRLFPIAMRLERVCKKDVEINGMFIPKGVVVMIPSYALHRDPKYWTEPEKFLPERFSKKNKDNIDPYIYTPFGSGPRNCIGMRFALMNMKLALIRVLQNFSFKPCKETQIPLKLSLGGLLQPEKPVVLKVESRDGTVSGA
Chain of CYP2C19 (P33261 whole entry): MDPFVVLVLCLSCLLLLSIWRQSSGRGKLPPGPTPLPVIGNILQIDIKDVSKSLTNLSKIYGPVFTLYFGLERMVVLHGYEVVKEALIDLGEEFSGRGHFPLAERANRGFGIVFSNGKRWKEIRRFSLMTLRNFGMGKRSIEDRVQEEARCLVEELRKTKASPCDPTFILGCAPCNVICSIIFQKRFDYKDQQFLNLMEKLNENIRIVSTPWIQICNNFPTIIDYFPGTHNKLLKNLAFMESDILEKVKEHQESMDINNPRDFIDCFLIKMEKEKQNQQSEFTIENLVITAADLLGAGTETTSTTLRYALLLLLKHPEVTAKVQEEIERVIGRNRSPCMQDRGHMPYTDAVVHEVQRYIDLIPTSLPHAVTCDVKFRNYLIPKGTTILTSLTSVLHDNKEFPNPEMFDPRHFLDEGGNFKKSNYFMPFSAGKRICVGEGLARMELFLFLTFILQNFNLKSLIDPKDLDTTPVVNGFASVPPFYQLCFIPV

## Nc1ccc(O)c(C(=O)O)c1 [Mesalamine (5-ASA), 5-aminosalicylic acid]
Mice [1]
  Carcinogenicity: not carcinogenic
Rats [2]
  Carcinogenicity: not carcinogenic
dogs
  Renal finding: renal lesions including tubular atrophy, interstitial cell infiltration, chronic nephritis, and papillary necrosis
[3]; 1.6 g granulated mesalamine
  Increase in AUC0-inf following a high-fat meal: 11%
  Increase in AUC0-last following a high-fat meal: 16%
[3]; 1.6 g granulated mesalamine (2×0.8 g)
  Tmax following a high-fat meal: prolonged
[3]; 1.6 g granules
  Increase in cumulative urinary excretion with a high fat meal: 27%
[3]; 1.6 g granules, listed as 5-ASA
  Effect of high fat meal on plasma Cmax: did not affect
[3]; 1.6 g granules, listed as mesalamine
  Effect of high fat meal on plasma Cmax: equivalent
[4]
  Concentration detected in human breast milk: low concentrations
Clinical [5]
  AUC(0-inf): 14000 ± 5000 ng·h/mL
Clinical [5]; AUC0-24
  AUC(0-t): 11000 ± 5000 ng·h/mL
Clinical [5]; Cmax
  Cmax: 2100 ± 1100 ng/mL
Clinical [5]; Tmax
  Tmax: 4 h
[6]
  fraction unbound at 2.5 μg/mL: 0.57
Rats [7]
  Effect on fertility or reproductive performance: no effect
CYP2C9
  Inhibition of CYP2C9: not to inhibit
CYP2D6
  Inhibition of CYP2D6: not to inhibit
[8]
  Sister chromatid exchange assay result: negative
Rats [9]
  Reproduction study finding: no evidence of impaired fertility or harm to the fetus
[10]
  T1/2: 5.49 h
[11]
  t1/2: 9 ± 7 h
CYP2C19
  Inhibition of CYP2C19: not to inhibit
CYP1A2
  Inhibition of CYP1A2: not to inhibit
Rats [12]; oral 40 mg/kg/day (about 0.20 times the human dose)
  Renal finding: minimal to slight tubular injury
Rats [12]; oral 160 mg/kg/day (about 0.90 times the human dose) or higher
  Renal finding: renal lesions including tubular degeneration, tubular mineralization, and papillary necrosis
Clinical [13]
  half-life: 5.49 h
CYP3A4
  Inhibition of CYP3A4: not to inhibit
[14]
  Increase in systemic exposure (AUC0-24) at steady state compared with a single dose: 1.5 fold
Ames test
  Ames test result: negative
Rats [15]
  Lethal single oral dose: 1800 mg/kg
[16]
  Forward mutation test result: negative
Mice [17]
  Lethal single oral dose: 800 mg/kg
rabbits
  Reproduction study finding: no evidence of impaired fertility or harm to the fetus
[18]; Day 4, after Asacol 800 mg BID
  Tmax: 16.0 (0, 24.0) h and 16.0 (0, 24.0)^e h
[18]; granulated mesalamine formulation
  Steady state plasma concentrations as measured by Cmax, QD compared to BID: higher
[18]; granulated mesalamine formulation 1600 mg QD vs 800 mg BID
  Systemic exposure, QD versus BID regimen: comparable
[18]; granulated mesalamine formulation administered BID
  Time to maximum drug concentrations, mean: 11.00 h
[18]; granulated mesalamine formulation administered QD
  Time to maximum drug concentrations, mean: 3.96 h
[18]; human, plasma, oral, 800 mg, AUCC, Day 4, after Asacol 800 mg BID, converted from μmol * h/L
  AUC: 8.34 ± 7.5 ng·h/mL
[18]; human, plasma, oral, 800 mg, AUCC, Day 4, after MP 800 mg BID, converted from μmol * h/L
  AUC: 14800 ± 5500 ng·h/mL
[18]; human, plasma, oral, 800 mg, AUCC, Day 4, after Treatment A Asacol 800 mg BID, mean ± SD
  AUC: 54.5 ± 49 µM·h
[18]; human, plasma, oral, 800 mg, AUCC, Day 4, after Treatment B MP 800 mg BID, mean ± SD
  AUC: 97 ± 35.9 µM·h
[18]; human, plasma, oral, 800 mg, Day 4, after Asacol 800 mg BID, converted from μmol/L, mean ± SD
  Cmax: 1060 ± 1370 ng/mL
[18]; human, plasma, oral, 800 mg, Day 4, after MP 800 mg BID, converted from μmol/L, mean ± SD
  Cmax: 1820 ± 710 ng/mL
[18]; human, plasma, oral, 800 mg, plasma, Day 4, after Treatment A Asacol 800 mg BID, n = 28, mean ± SD
  Cmax: 6.93 ± 8.99 µM
[18]; human, plasma, oral, 800 mg, plasma, Day 4, after Treatment B MP 800 mg BID, n = 28, mean ± SD
  Cmax: 11.9 ± 4.65 µM
[18]; human, plasma, oral, 1600 mg, AUC0-24, Day 4, after MP 1600 mg QD, converted from μmol * h/L
  AUC: 14800 ± 6490 ng·h/mL
[18]; human, plasma, oral, 1600 mg, AUC0-24, Day 4, after Treatment C MP 1600 mg QD, mean ± SD
  AUC: 96.5 ± 42.4 µM·h
[18]; human, plasma, oral, 1600 mg, Day 4, after MP 1600 mg QD, converted from μmol/L, mean ± SD
  Cmax: 3040 ± 1670 ng/mL
[18]; human, plasma, oral, 1600 mg, plasma, Day 4, after Treatment C MP 1600 mg QD, n = 28, mean ± SD
  Cmax: 19.9 ± 10.9 µM
[18]; human, plasma, oral, Day 4, after MP 800 mg BID, time from first dose, read-out: Tmax
  Tmax: 16 h
[18]; human, plasma, oral, Day 4, after MP 1600 mg QD, read-out: Tmax
  Tmax: 3 h
